In ChEMBL document CHEMBL1201862, “PubChem BioAssay data set” (2004):
Where a name gives a salt, the structure may show the parent alone. Calls of active or inactive are those of the source.

Tests used:
[1] = P. falciparum Dd2 growth inhibitors, dose response, SYBR Green, cherry-picked samples (AID 1159567); assay type: functional, cell-based
[2] = target: Induced myeloid leukemia cell differentiation protein Mcl-1 (Homo sapiens, UniProt Q07820); assay type: functional
[3] = target: T1, Corticotropin-releasing factor receptor 2/Corticotropin-releasing factor-binding protein (Homo sapiens, UniProt P24387+Q13324); experiment: Dose Response confirmation of uHTS hits for small molecule antagonists of the CRF-binding protein and CRF-R2 receptor complex.; assay type: functional; settings: read-out: IC50_Mean
T1 sequence (Q13324 whole entry): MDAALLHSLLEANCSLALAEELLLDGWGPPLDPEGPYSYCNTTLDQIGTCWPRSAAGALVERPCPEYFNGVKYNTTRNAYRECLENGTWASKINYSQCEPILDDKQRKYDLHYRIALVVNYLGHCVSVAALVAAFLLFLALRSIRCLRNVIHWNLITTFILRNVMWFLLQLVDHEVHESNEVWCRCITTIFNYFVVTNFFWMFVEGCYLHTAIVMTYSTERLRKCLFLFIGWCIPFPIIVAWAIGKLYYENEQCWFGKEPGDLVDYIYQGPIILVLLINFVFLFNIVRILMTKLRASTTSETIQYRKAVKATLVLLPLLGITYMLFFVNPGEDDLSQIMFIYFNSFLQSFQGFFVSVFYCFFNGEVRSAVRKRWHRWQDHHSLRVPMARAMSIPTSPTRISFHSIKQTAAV
T1 sequence (P24387 whole entry): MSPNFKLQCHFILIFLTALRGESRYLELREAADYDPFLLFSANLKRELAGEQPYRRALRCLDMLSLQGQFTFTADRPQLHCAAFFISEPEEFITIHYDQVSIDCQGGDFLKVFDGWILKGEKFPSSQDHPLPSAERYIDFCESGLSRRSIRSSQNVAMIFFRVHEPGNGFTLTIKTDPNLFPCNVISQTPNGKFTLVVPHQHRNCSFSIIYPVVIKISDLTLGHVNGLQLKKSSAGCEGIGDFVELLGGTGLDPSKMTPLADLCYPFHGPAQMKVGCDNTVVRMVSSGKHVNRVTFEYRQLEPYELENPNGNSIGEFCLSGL

[4] = target: T1, Corticotropin-releasing factor receptor 2/Corticotropin-releasing factor-binding protein; experiment: activators of CRF receptor 2 with binding protein – uHTS hits, confirmation (AID 602473); assay type: functional; settings: read-out: EC50_Mean
[5] = microbe, parasite or virus in culture; assay type: functional; settings: Mycobacterium tuberculosis
[6] = target: T2, Heat shock factor protein 1 (Mus musculus, UniProt P38532); experiment: enhancement of HSF1-driven luciferase signal – cell-based, NIH3T3, luminescence, dose retest, confirmation (AID 435004); assay type: functional;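 note: stress induced by proteasome inhibitor MG132 added 30 min after compound; luciferase reporter driven by HSF1 response element in NIH3T3 cells; actives raise luminescence as potentiators of the MG132 stress response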
T2 sequence (P38532 whole entry): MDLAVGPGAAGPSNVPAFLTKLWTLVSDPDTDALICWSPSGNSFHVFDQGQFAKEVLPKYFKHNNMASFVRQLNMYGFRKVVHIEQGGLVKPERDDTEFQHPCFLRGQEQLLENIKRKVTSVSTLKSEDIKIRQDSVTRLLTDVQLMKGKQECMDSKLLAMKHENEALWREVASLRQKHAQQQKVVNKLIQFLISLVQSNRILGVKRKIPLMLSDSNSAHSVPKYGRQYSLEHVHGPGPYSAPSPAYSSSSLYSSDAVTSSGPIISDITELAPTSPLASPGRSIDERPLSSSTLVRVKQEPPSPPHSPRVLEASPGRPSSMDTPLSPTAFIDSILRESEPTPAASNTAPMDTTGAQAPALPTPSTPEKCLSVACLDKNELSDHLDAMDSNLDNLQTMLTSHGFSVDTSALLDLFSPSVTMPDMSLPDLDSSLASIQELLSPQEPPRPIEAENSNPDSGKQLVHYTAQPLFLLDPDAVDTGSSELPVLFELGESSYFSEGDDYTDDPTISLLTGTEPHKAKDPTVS

[7] = target: T3, Replicative DNA helicase DnaB (Mycobacterium tuberculosis, UniProt P9WMR3); experiment: DnaB intein splicing inhibitors, dose response, biochemical, cell-free fluorescence (AID 449749); assay type: functional
T3 sequence (P9WMR3 whole entry): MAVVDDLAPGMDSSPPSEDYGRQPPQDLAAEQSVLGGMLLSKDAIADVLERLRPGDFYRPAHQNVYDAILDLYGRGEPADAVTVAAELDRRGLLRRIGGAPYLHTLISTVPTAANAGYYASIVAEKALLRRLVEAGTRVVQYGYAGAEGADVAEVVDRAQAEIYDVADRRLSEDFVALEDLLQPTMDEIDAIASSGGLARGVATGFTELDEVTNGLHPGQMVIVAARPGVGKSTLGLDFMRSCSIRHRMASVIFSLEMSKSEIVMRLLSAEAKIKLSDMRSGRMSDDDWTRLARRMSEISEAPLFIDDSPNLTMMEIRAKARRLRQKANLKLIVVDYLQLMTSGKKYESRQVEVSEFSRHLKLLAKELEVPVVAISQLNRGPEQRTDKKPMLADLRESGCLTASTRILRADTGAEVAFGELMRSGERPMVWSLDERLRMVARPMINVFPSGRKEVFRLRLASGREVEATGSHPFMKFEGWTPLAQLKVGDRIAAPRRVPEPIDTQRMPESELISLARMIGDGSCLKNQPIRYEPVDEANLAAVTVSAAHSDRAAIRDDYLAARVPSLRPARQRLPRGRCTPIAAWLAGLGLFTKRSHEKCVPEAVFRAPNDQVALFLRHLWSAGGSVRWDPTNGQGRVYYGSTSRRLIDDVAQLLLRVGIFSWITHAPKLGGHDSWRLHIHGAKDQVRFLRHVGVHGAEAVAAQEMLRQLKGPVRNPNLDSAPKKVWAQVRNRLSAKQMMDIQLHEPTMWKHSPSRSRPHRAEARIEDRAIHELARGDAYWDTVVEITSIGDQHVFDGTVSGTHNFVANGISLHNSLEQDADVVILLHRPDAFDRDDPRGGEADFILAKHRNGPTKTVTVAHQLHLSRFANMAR

Protein RecA = target: T4, Protein RecA (Mycobacterium tuberculosis, UniProt P9WHJ3); experiment: Fluorescence Cell-Free Homogeneous Dose Retest to Identify Inhibitors of RecA-Intein Splicing Activity. [Related pubchem assays (depositor defined):AID2097, AID2223, AID489010, AID492950]; assay type: functional
T4 sequence (P9WHJ3 whole entry): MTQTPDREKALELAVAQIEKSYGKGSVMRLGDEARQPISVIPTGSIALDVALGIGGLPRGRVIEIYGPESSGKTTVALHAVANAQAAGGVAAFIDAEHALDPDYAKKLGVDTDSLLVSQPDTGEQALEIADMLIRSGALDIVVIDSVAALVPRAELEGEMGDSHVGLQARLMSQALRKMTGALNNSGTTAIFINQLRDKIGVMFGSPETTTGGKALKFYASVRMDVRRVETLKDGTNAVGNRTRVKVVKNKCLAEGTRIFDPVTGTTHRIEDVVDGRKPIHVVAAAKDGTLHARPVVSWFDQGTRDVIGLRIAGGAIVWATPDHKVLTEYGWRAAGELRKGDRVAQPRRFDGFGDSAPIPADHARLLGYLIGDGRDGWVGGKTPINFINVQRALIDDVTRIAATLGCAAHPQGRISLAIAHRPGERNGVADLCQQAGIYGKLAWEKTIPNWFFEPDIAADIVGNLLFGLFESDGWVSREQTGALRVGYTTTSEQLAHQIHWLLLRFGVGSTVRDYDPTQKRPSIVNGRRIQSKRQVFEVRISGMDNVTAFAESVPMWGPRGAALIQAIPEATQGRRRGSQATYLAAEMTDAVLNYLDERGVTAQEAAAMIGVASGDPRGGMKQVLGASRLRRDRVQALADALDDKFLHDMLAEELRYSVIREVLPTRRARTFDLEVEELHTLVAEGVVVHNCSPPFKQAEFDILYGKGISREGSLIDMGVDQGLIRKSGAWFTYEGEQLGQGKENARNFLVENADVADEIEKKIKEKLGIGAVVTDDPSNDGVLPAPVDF

Paired box protein Pax-8 = Paired box protein Pax-8 (Homo sapiens, UniProt Q06710); experiment: PAX8 transcriptional activity inhibition in RMG-I – RMG-I cells, luciferase, cherry-pick, dose response (AID 687027); assay type: functional, cell-based;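 note: luciferase reporter driven by Pax8 target thyroperoxidase promoter measured by SteadyGlo luminescence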
Chain of Paired box protein Pax-8 (Q06710 whole entry): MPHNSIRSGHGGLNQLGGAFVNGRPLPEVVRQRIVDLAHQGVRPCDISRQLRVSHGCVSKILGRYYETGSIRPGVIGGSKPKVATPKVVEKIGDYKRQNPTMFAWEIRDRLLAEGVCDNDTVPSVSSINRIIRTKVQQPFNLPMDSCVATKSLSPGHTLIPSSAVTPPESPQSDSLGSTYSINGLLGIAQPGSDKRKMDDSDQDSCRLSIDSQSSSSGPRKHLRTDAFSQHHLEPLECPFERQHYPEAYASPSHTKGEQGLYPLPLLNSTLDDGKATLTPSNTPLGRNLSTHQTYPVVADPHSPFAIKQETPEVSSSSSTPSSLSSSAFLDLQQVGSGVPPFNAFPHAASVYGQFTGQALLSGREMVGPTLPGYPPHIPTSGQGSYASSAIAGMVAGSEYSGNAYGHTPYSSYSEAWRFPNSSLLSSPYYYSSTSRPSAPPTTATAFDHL

[8] = NIH-3T3 fibroblast cytotoxicity, dose response, cytotoxicity control, cell-based, fluorescence, Alamar Blue, secondary assay (AID 2327); assay type: functional;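 note: NIH-3T3 mouse fibroblasts cultured with fluconazole at 8 µg/mL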
[9] = fluconazole-exposed Candida albicans growth modulators – fluorescence, retest, confirmation (AID 2467); assay type: functional, cell-based
[10] = Trypanosoma cruzi growth suppression in host cells – NIH3T3 host cells, beta-gal luminescence, confirmation (AID 2044); assay type: functional, cell-based;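 note: intracellular parasites grown in NIH/3T3 mouse fibroblasts as host cells; luminescent beta-galactosidase reporter signal from transgenic T. cruzi replicating inside host cells; inhibitors lower the luminescence signal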
[11] = NIH3T3 cell viability loss – ATP luminescence, mouse fibroblasts, counter-screen, dose response (AID 2010); assay type: functional, cell-based;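 note: cells exposed to compound for about 90 hours before reading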
INS1 = experiment: INS-1E survival protection against cytokine death – cell-based, luminescence, retest, dose response (AID 449756); assay type: functional; settings: Rattus norvegicus;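 note: cell death triggered by IL-1 beta plus TNF-alpha plus IFN-gamma mixture; protective hits raise ATP signal compared with cytokine alone wells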

Chain of Induced myeloid leukemia cell differentiation protein Mcl-1 (Q07820 whole entry): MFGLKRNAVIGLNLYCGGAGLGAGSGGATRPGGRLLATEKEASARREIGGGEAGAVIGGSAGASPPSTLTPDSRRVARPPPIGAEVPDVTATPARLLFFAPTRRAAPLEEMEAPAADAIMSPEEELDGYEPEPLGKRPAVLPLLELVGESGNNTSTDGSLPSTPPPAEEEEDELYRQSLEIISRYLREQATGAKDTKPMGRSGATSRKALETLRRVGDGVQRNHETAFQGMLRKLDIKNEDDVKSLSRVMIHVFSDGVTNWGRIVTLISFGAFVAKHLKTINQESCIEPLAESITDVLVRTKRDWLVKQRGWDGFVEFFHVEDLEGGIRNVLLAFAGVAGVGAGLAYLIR

COc1ccc2c3c(n(C)c2c1)[C@@H](CO)N(C(=O)c1ccc(F)cc1)CC31CN(CC2CCOCC2)C1
AC50 [1]: 12.1 µM (active)

Nc1ccc2c(c1Cl)C(=O)c1ccc(N)c(Cl)c1C2=O
IC50 [2]: 2.76 µM (active)

C=C(C)C(=O)Oc1ccc(N2C(=O)[C@@H]3C4C=CC(C4)[C@@H]3C2=O)cc1
IC50 [3]: > 47.1 µM (inactive) | EC50 [4]: > 53 µM (inactive)

CO[C@@H]1CN(C)C(=O)c2cc(NC(=O)Cc3ccccc3)ccc2OC[C@H](C)N(C(=O)c2ccccc2F)C[C@@H]1C
AC50 [1]: 7.66 µM (active)

O=C(Cc1ccccn1)N1CCCCN2[C@@H](CO)[C@@H](c3ccc(C#Cc4ccccc4)cc3)[C@@H]2C1
AC50 [1]: 4.71 µM (active)

COc1ccc(N(CC(=O)Nc2cc(Cl)ccc2C)S(=O)(=O)c2c(C)n[nH]c2C)cc1
CC50 [5]: > 40 µM (active)

COc1ccc(N2C(=O)C(Cl)=C(Oc3cccc(OC)c3)C2=O)cc1
EC50 [6]: 1.84 µM (active) | AC50 [7]: 18.9 µM (active) | EC50 (Protein RecA): 10.7 µM (active)

Cc1ccc(NS(=O)(=O)c2ccc(C(=O)Nc3nncs3)cc2)cc1
IC50 [3]: > 47.1 µM (inactive) | EC50 [4]: > 53 µM (inactive)

CC1=C(C(=O)OC(C)C)C(c2cccs2)N2C(=O)C(C)SC2=N1 (stereo not drawn)
IC50 [3]: > 47.1 µM (inactive) | EC50 [4]: > 53 µM (inactive)

C[C@@H]1CCCCO[C@@H](CN(C)Cc2ccc(C(F)(F)F)cc2)[C@H](C)CN([C@H](C)CO)C(=O)c2cc(NS(=O)(=O)c3cccs3)ccc2O1
AC50 (Paired box protein Pax-8): 9.08 µM (active)

COc1ccccc1CNC(=O)CCc1nnc2ccc(NCCCN3CCCC3=O)nn12
IC50 [3]: > 47.1 µM (inactive) | EC50 [4]: > 53 µM (inactive)

COc1ccc(C(CC(=O)c2ccc(C)cc2)C(C#N)C#N)cc1OC (stereo not drawn)
EC50 [6]: 5.54 µM (active) | AC50 [7]: 11.4 µM (active) | EC50 (Protein RecA): 4.79 µM (active)

CC1CCN(c2ccc(NC(=O)Cc3ccccc3)cc2)CC1
IC50 [2]: 5.35 µM (not active)

COC(=O)C(CC(=O)c1cccc(OC)c1)c1ccc(F)cc1 (stereo not drawn)
IC50 [3]: > 47.1 µM (inactive) | EC50 [4]: > 53 µM (inactive)

CCOc1ccc(N2CC(C(=O)NCc3nnnn3-c3ccc(C)c(C)c3)CC2=O)cc1 (stereo not drawn)
IC50 [3]: > 47.1 µM (inactive) | EC50 [4]: > 53 µM (inactive)

CC(C)c1cc(N2CCC(=O)NC2=O)cc(C(=O)O)c1O
IC50 [3]: > 47.1 µM (inactive) | EC50 [4]: > 53 µM (inactive)

Cc1cc(NC2CCCCC2)nc(-c2ccccc2O)n1
CC50 [5]: > 40 µM (active)

O=C(CSc1nnc(-c2ccco2)n1Cc1ccccc1)OC1CCCCC1
EC50 [8]: > 150 µM (inactive) | EC50 [9]: > 38 µM (not active) | EC50 [6]: 35.8 µM (active)

CCC(C)NS(=O)(=O)c1ccc(OCC(=O)NCc2ccccn2)cc1 (stereo not drawn)
IC50 [3]: > 47.1 µM (inactive) | EC50 [4]: > 53 µM (inactive)

Cc1nn(Cc2ccccc2)c(C)c1NC(=O)c1cc2nc(-c3ccco3)cc(C(F)(F)F)n2n1
CC50 [5]: > 40 µM (active)

CC(=O)O[C@H]1C[C@H](O[C@H]2[C@@H](O)C[C@H](O[C@H]3[C@@H](O)C[C@H](O[C@H]4CC[C@@]5(C)[C@H](CC[C@@H]6[C@@H]5CC[C@]5(C)[C@@H](C7=CC(=O)OC7)CC[C@]65O)C4)O[C@@H]3C)O[C@@H]2C)O[C@H](C)[C@H]1O[C@@H]1O[C@H](CO)[C@@H](O)[C@H](O)[C@H]1O
AC50 (Paired box protein Pax-8): 0.345 µM (active)

CCN(c1ccc(NC(=O)COC(=O)c2cc3ccccc3oc2=O)cc1)C(C)C
IC50 [2]: 25.3 µM (not active)

O=C1N=C(N/N=C/c2ccccn2)SC1Cc1cccc(SC(F)F)c1 (stereo not drawn)
EC50 [10]: 0.528 µM (active) | CC50 [5]: 14.7 µM (active) | EC50 [11]: 4.95 µM (active)

CC1CCCCN1C(C(=O)O)c1ccccc1 (stereo not drawn)
IC50 [3]: > 47.1 µM (inactive) | EC50 [4]: > 53 µM (inactive)

CCCCC(CC)CN=C(N)N=C(N)NCCCCCCNC(N)=NC(N)=NCC(CC)CCCC (stereo not drawn) [ALEXIDINE HYDROCHLORIDE]
CC50 [5]: 10.5 µM (active) | AC50 (INS1): 2.26 µM (active)

C/C(Cl)=C\COc1cc(C)nc2c(Br)cccc12
CC50 [5]: > 40 µM (active)

O=C(CCC(=O)OCC(F)(F)C(F)F)NCc1ccccc1
IC50 [3]: > 47.1 µM (inactive) | EC50 [4]: > 53 µM (inactive)

C[C@@H]1CN([C@H](C)CO)C(=O)Cc2cc(NC(=O)Cc3ccccc3)ccc2O[C@@H]1CN(C)Cc1ccc(C(F)(F)F)cc1
AC50 (Paired box protein Pax-8): 11.8 µM (active)

COc1ccc(C#Cc2ccc3c(c2)[C@H]2[C@H](CCN2C(=O)c2ccccn2)[C@@H](CO)N3)cc1
AC50 [1]: 3.75 µM (active)
